Source: US9487551B2, “Small molecule compounds that control mammal-pathogenic nematodes” (California Institute of Technology, priority 2011, dated 2016)
Entries after “also recorded” stand apart in the source; their conditions may differ. Marks after values point to notes of the source that are not given here.

Legend:
Panagrellus redivivus = assay: Ascaroside function (Table 12); type: in vivo; conditions: listed = has this function
Procedure: (§1) Various ascarosides and ascaroside blends were administered to various nematodes described below (Table 12). […] A very strong result of affecting nematode behavior is designated in the table as “strong.”

[1] = tested on: Meloidogyne javanica, M. floridensis, M. incognita, M. hapla; assay: Ascaroside function (Table 12); type: in vivo, Meloidogyne spp.; conditions: for predicted function in Meloidogyne species: alone, in concert, and/or in concert with ascr#9 or other ascarosides; for Dispersal (of dauer larvae, infectious juveniles) / Repel Females/Herm.: entries with asterisk (predicted)
Procedure: (§2) Ascarosides ascr#10, ascr#16, ascr#18, ascr#20, and ascr#22 were detected in certain species of Meloidogyne plant parasitic nematodes (FIG. 83) and identified using high-resolution mass spectrometry (FIGS. 84-88).
as §1

[2] = tested on: Several of the tested nematode species; assay: Retention assay; type: in vivo; conditions: 1 nM, 1 μM and 1 mM tested
Procedure: OP50 E. coli was grown on a standard 5 cm agar plate (made with standard Nematode Growth Medium). The bacterial lawn was 16 mm in diameter and was grown overnight at 20° C. before being used in trials. Two 4 mm spots (0.6 μL) were placed on opposite sides of the bacterial lawn (using a transparent template to guide spot placement), and several minutes elapsed for the liquid to settle in before placing nematodes down on the assay. Recording began immediately upon worm placement. 0.6 μL of the control was placed on one side of the lawn, and 0.6 μL of the experimental cue was placed on the other side of the lawn, changing the location of the cue throughout trials between left/right and top/bottom to avoid bias.
Nematodes were isolated by gender at the L4 stage the day before being used in trials as developed adults. Worms were evenly divided and placed at two points equidistant from the foci of the scoring region. Trials were recorded for 20 minutes, and frames were collected for analysis at 1 frame per second. Results were averaged from at least three different trials. For every nematode species in this study, a different total number of worms (using water in both scoring regions) was tested to determine the minimum number of worms necessary for consistent unbiased results over a 20 minute trial. The total number of worms used in the multiple species assays depended on that species' optimal parameters. 10 worms were used for P. redivivus males and females, 20 worms were used for C. elegans males and O. dolichuridae males, and 14 worms were used for S. glaseri males. The Automated Software was used to compare worm occupancy in each scoring region over time, and the Chemotaxis Index (Bargmann et al., Cell 74:515-27 (1993), which is hereby incorporated by reference in its entirety) was adapted to score preference or avoidance to each ascaroside.
A video camera attached to the microscope produced a digital video stream, which was then analyzed. The ratio of the time the average worm spent in each region of interest was calculated for every trial. For ease of implementation, all worms in a single experiment were assumed to be roughly the same size. Thus worm pixels were counted instead of whole worms, allowing fractions of a worm in the region of interest to be taken into account. It also eliminated the need for a shape-based worm identification algorithm, and allowed each frame to be analyzed independently. A band-pass filter was applied to each frame to eliminate the effect of uneven lighting and also accentuate the worms against the background. The worm was then identified after thresholding the filtered image. Throughout each experiment, the locations and sizes of the regions of interest were known. Through the filtering described above, it is known which pixels are occupied by worms and which ones are not. Thus, the ratio of worm-pixels to all pixels inside the region of interest can be calculated to produce the worm-occupancy ratio. This calculation was done for every frame, giving a plot output of worm-occupancy ratio vs. time for each region.

C. elegans [3] = assay: Ascaroside function (Table 12); type: in vivo, Caenorhabditis elegans; set-up: key to Attract Females/Herm. / Promote Dauer Formation / Attract Males: A very strong result of affecting nematode behavior is designated in the table as “strong.”; conditions: listed = has this function
Procedure: as §1

S. glaseri = assay: Ascaroside function (Table 12); type: in vivo; conditions: listed = has this function
Procedure: as §1

[4] = tested on: Heterorhabditis bacteriophora, H. zealandica, H. floridensis; assay: Ascaroside function (Table 12); type: in vivo, Heterorhabditis spp.; conditions: for predicted function in Heterorhabditis: alone, in concert, and/or in concert with ascr#9 or other ascarosides; for Dispersal (of dauer larvae, infectious juveniles) / Repel Females/Herm.: entries with asterisk (predicted)
Procedure: as §2, §1

C. elegans males = assay: Attraction assay (long-range, point source); type: in vivo; conditions: 10 cm plate
Procedure: 10 cm standard chemotaxis plates were prepared (Bargmann et al., Cell 74:515-27 (1993), which is hereby incorporated by reference in its entirety) and stored at 4° C. until the day before use. Standard 1 cm-diameter copper pipes were sectioned into 1 cm-tall segments to use for the holding chambers. The females/hermaphrodites were isolated overnight, washed 3 times in M9 buffer, and then allowed to wander on a plate pre-conditioned with 50 uL of 1000× treptomycin for 2 hours to kill any bacteria that might produce a false positive attractant. The nematodes were then washed 3 times, and the supernatant from the last wash was placed in a copper chamber, as the control, 1 cm from the border of the 10 cm plate. The nematodes were suspended in M9 within the copper chamber, 1 cm from the border opposite the control chamber. After 6 hours, they were subsequently removed and replaced with 3 μL of 1M sodium azide. 100 C. elegans adult males were isolated overnight, washed several times in ddH2O, and placed at the center of the agar plate. After several hours, males paralyzed within 2 cm of each region were scored. The Chemotaxis Index (Bargmann et al., Cell 74:515-27 (1993), which is hereby incorporated by reference in its entirety) was then used to score male chemotaxis to either point source.

C. elegans [5] = conditions: in vivo; cited from earlier work
C. elegans [6] = conditions: cited from earlier work
S. feltiae = assay: Ascaroside function (Table 12); type: in vivo, Steinernema feltiae; conditions: listed = has this function
Procedure: as §1

C. elegans [7] = assay: Quadrant chemotaxis assay; type: in vivo; conditions: FIGS. 48A-B; wild-type hermaphrodites
Procedure: Chemotaxis to both non-indole and indole ascarosides was assessed on 10 cm four-quadrant petri plates (Wicks et al., Dev. Biol. 221:295-307 (2000), which is hereby incorporated by reference in its entirety). Each quadrant was separated from adjacent ones by plastic spacers (FIG. 1B). Pairs of opposite quadrants were filled with nematode growth medium (NGM) agar containing either indole ascarosides or non-indole ascarosides at different concentrations. Animals were washed gently in a S-basal buffer, placed in the center of a four-quadrant plate with ascarosides in alternating quadrants, and scored after 15 minutes and 30 minutes. A chemotaxis index was calculated as: (the number of animals on ascaroside quadrants minus the number of animals on buffer quadrants)/(total number of animals).
Chemotaxis to hbas#3 was assessed on 10 cm four-quadrant petri plates (Wicks et al., Dev. Biol. 221:295-307 (2000), which is hereby incorporated by reference in its entirety). Each quadrant was separated from adjacent ones by plastic spacers. Pairs of opposite quadrants were filled with nematode growth medium (NGM) agar containing different concentrations of hbas#3. Animals were washed gently in an S-basal buffer and placed in the center of a four-quadrant plate with ascarosides in alternating quadrants, and scored after 15 minutes and 30 minutes. A chemotaxis index was calculated as: (the number of animals on ascaroside quadrants minus the number of animals on buffer quadrants)/(total number of animals).

C. elegans [8] = assay: Spot attraction assay; type: in vivo
Procedure: The spot attraction assays were conducted according to a previously reported method (Pungaliya et al., PNAS 106:7708-13 (2009); Srinivasan et al., Nature 454:1115-18 (2008), which are hereby incorporated by reference in their entirety). For both C. elegans hermaphrodites and males, 50-60 worms were harvested daily at the fourth larval stage (L4) and stored segregatedly by sex at 20° C. overnight, to be used as young adults the following day. For the competition experiments, two conditions were used: 120 nM ascr#3 and 10 nM icas#3 (Condition 1), or 12 μM ascr#3 and 1 μM icas#3 (Condition 2) in water containing 10% ethanol. Aliquots were stored at −20° C. in 20 μL tubes. 10% ethanol in water was used as control.
Attraction assays with hbas#3 were conducted as previously reported (Srinivasan et al., Nature 454:1115-18 (2008); Pungaliya et al., Proc. Natl. Acad. Sci. U.S.A. 106:7708-13 (2009), which are hereby incorporated by reference in their entirety). For the attraction assays, 50-60 hermaphrodite worms were harvested daily at the early fourth larval stage (L4) and stored at 20° C. overnight to be used as young adults the following day. Hbas#3 was dissolved in water containing 10% ethanol. Aliquots were stored at −20° C. in 20 μL tubes. 10% ethanol in water was used as control.

C[C@@H]1O[C@@H](OCCCCC(=O)O)[C@H](O)C[C@H]1O [oscr#9, 5-(3′R,5′R-Dihydroxy-6′S-methyl-(2H)-tetrahydropyran-2′-yloxy)pentanoic acid]
Attract Males (Panagrellus redivivus): oscr#9

CC1OC(O[C@H](C)CCCCCCCC(=O)O)C(O)CC1O (some centres unmarked) [ascr#16]
predicted function in Meloidogyne species [1]: act as dispersants and repellants | Dispersal (of dauer larvae, infectious juveniles) [1]: ascr#16* | Repel Females/Herm. [1]: ascr#16*

C[C@H](CC/C=C/C(=O)O)O[C@@H]1O[C@@H](C)[C@H](O)C[C@H]1O [ascr#7]
preference for ascaroside-conditioned areas [2]: preferred areas conditioned | Attract Males (C. elegans [3]): ascr#7 | Attract Males (Panagrellus redivivus): ascr#7 | Attract Males (S. glaseri): ascr#7

CC1OC(O[C@H](C)CCCCCCCCC(=O)O)C(O)CC1O (some centres unmarked) [ascr#18]
predicted function in Meloidogyne species [1]: act as dispersants and repellants | Dispersal (of dauer larvae, infectious juveniles) [1]: ascr#18* | Repel Females/Herm. [1]: ascr#18* | predicted function in Heterorhabditis [4]: act as dispersants and repellants | Dispersal (of dauer larvae, infectious juveniles) [4]: ascr#18* | Repel Females/Herm. [4]: ascr#18*

CC1O[C@@H](O[C@H](C)CCCC/C=C/C(=O)O)[C@@H](O)C[C@H]1O (some centres unmarked) [ascr#3]
preference for ascaroside-conditioned areas [2]: preferred areas conditioned | Attract Males (C. elegans [3]): ascr#3 | Promote Dauer Formation (C. elegans [3]): ascr#3 ([strong]) | Repel Females/Herm. (C. elegans [3]): ascr#3 | amount as low as which elicited C. elegans male attraction (C. elegans males): 5 femtomol | male attraction from a distance (C. elegans males): chemotax towards | dauer-inducing activity (C. elegans [5]): individually promote dauer entry | most active amount for attraction (C. elegans [6]; from 1 μM concentration): ~1 pmol | response of social and solitary hermaphrodites (C. elegans [6]; high dauer-inducing concentrations): strongly deter both social and solitary hermaphrodites | response of males and hermaphrodites (C. elegans [6]; in vivo): strongly attracts males but repels hermaphrodites | Attract Males (Panagrellus redivivus): ascr#3 | Attract Males (S. glaseri): ascr#3 | Dispersal (of dauer larvae, infectious juveniles) (S. feltiae): ascr#3

CC(=O)CC[C@@H](C)O[C@@H]1O[C@@H](C)[C@H](O)C[C@H]1O[C@@H]1O[C@H](CO)[C@@H](O)[C@H](O)[C@H]1O [ascr#4]
Promote Dauer Formation (C. elegans [3]): ascr#4

C[C@H](CCCCCCCCCCC(=O)O)O[C@@H]1O[C@@H](C)[C@H](O)C[C@H]1O [ascr#22]
predicted function in Meloidogyne species [1]: act as dispersants and repellants | Dispersal (of dauer larvae, infectious juveniles) [1]: ascr#22* | Repel Females/Herm. [1]: ascr#22* | predicted function in Heterorhabditis [4]: act as dispersants and repellants | Dispersal (of dauer larvae, infectious juveniles) [4]: ascr#22* | Repel Females/Herm. [4]: ascr#22*

CC1O[C@@H](OCCCCCCCCC(=O)O)C(O)C[C@H]1O (stereo partly drawn) [oscr#10, 9-(3′R,5′R-Dihydroxy-6′S-methyl-(2H)-tetrahydropyran-2′-yloxy)nonanoic acid]
Repel Males (Panagrellus redivivus): oscr#10

C[C@H](CCCC/C=C/C(=O)O)O[C@@H]1O[C@@H](C)[C@H](OC(=O)c2ccc(O)cc2)C[C@H]1O [hbas#3, (8R)-(3′R-Hydroxy-5′R-(4-hydroxybenzoyloxy)-6′S-methyl-(2H)-tetrahydropyran-2′-yloxy)non-(2E)-enoic acid]
concentration as low as which strongly attracted C. elegans (C. elegans [7]): 10 femtomolar | Attract Males (C. elegans [3]): ([strong]) | attraction of wild-type (N2) hermaphrodites (C. elegans [8]; dose dependent): attracted

C[C@H](CCCCC(=O)O)O[C@@H]1O[C@@H](C)[C@H](OC(=O)c2c[nH]c3ccccc23)C[C@H]1O [icas#1]
Attract Females/Herm. (C. elegans [3]): icas#1 ([strong]) | Attract Males (C. elegans [3]): icas#1 ([strong]) | attraction in spot attraction assay (C. elegans [8]; 1 pmol (high concentrations), N2 hermaphrodites and him-5 males): attractive to both C. elegans sexes; also recorded: attracted both males and hermaphrodites

CC1OC(O[C@H](C)CCCCCCCCCC(=O)O)C(O)CC1O (some centres unmarked) [ascr#20]
predicted function in Meloidogyne species [1]: act as dispersants and repellants | Dispersal (of dauer larvae, infectious juveniles) [1]: ascr#20* | Repel Females/Herm. [1]: ascr#20*
